As usually defined, the IC50 is the point on the concentration scale where inhibition reaches its midpoint. A word on the Ki: it is a dissociation constant, usually derived from enzyme kinetics or from competition with a known ligand. The clearance is the volume of plasma or blood freed of the substance per unit of time. In general, Vd refers to the apparent volume that relates the amount in the body to the concentration in plasma or blood. Low readings indicate confinement near the circulation, high ones extensive tissue distribution. A word on the half-life: it is the time needed for the level to fall by half in the phase considered. Read a high half-life as slow decline.

This is an account of results in ChEMBL document CHEMBL1132009, “Inhibition of MMP-1 and MMP-13 with phosphinic acids that exploit binding in the S2 pocket” (Bioorg Med Chem Lett, 1999).

One data set deals with T1, Interstitial collagenase (Homo sapiens, UniProt P03956).
T1 sequence (P03956 whole entry): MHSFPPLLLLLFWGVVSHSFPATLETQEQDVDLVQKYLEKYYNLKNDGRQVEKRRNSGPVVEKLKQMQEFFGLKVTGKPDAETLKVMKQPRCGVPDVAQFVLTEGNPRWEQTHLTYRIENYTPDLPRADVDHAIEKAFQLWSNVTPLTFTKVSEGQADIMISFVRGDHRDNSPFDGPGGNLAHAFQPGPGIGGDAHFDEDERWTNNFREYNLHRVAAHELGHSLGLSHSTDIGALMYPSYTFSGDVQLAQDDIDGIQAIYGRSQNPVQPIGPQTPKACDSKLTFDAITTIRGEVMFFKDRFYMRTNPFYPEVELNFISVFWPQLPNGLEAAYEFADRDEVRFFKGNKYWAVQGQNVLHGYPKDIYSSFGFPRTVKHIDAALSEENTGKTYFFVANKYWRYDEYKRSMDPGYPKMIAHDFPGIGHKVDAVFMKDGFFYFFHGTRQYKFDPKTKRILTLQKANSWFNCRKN
In words: Inhibitory activity against recombinant matrix metalloprotease-1 (MMP-1).

A further data set addresses Collagenase 3 (Homo sapiens, UniProt P45452). The experiment in a line: Inhibition of recombinant Matrix metalloprotease-13 (MMP-13).
Data set [1] has as its target 72 kDa type IV collagenase (Homo sapiens, UniProt P08253). The experiment in a line: Inhibition of recombinant matrix metalloprotease-2 (MMP-2).
The target of another data set is Stromelysin-1 (Homo sapiens, UniProt P08254). In words: Inhibition of recombinant matrix metalloprotease-3 (MMP-3).
Chain of Stromelysin-1 (P08254 whole entry): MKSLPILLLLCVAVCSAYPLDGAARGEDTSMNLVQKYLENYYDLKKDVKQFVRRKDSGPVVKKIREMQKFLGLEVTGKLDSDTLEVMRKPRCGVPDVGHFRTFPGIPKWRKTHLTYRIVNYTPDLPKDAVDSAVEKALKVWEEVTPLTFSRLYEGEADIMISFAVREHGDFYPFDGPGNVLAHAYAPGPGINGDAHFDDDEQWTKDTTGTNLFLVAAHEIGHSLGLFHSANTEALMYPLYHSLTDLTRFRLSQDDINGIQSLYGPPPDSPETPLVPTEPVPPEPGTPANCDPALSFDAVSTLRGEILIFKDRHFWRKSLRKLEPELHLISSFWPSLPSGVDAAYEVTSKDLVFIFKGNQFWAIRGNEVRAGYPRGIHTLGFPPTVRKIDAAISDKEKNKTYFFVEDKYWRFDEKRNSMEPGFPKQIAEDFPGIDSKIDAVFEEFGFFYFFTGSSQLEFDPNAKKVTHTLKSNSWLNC
Data set [2] is described as follows: Selectivity ratio for MMP-2 over MMP-3.
Data set [3] can be described thus: Clearance after iv administration to rats. The conditions noted are these: rat, in vivo. In kind it is ADME, organism-based.
Data set [4] in a line: Steady state volume of distribution after iv administration to rats. In kind it is ADME, organism-based. The note with it: rat, in vivo.
Data set [5] is described as follows: Terminal half-life after iv administration to rats. The conditions noted are these: rat, in vivo. In kind it is ADME, organism-based.

Chain of 72 kDa type IV collagenase (P08253 whole entry): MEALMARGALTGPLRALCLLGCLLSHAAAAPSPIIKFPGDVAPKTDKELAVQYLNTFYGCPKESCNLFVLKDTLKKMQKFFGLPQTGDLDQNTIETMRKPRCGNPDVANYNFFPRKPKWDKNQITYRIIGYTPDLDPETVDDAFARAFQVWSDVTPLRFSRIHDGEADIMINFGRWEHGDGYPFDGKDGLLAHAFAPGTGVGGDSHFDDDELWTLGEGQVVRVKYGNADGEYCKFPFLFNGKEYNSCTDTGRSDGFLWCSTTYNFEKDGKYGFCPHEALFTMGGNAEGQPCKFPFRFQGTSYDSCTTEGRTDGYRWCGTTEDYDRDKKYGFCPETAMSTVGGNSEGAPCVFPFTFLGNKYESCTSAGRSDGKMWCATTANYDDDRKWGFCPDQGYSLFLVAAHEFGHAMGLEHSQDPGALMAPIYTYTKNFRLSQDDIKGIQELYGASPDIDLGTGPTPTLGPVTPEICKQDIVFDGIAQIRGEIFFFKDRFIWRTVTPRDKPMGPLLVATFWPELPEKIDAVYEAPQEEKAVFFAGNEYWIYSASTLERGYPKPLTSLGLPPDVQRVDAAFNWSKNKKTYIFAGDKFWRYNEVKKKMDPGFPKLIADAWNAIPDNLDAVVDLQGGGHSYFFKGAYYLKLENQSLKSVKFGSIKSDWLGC

In the case of `CNC(=O)[C@@H](Cc1ccc(OC)cc1)NC(=O)C(CC(C)C)CP(=O)(O)Cc1ccc(C(=O)NCc2ccccc2)cc1` (some centres undefined), on Interstitial collagenase, the IC50 came out at 2100 nM.

In the case of `CC(C)CC(CP(=O)(O)Cc1ccc(Cc2ccccc2)cc1)C(=O)NCC(C)(C)C` (centres undefined), the IC50 at Interstitial collagenase came out at 20000 nM.

Turning to `CNC(=O)[C@H](NC(=O)C(CCC(C)C)CP(=O)(O)Cc1ccc(Cc2ccccc2)cc1)C(C)(C)C` (some centres undefined), the IC50 at Interstitial collagenase is 3500 nM; on Collagenase 3, above 3000 nM.

Regarding `CC(C)C[C@@H](NC(=O)[C@H](CCc1ccccc1)CP(=O)(O)CCCCN1C(=O)c2ccccc2C1=O)C(=O)Nc1ccccc1`, the Ki in data set [1] amounted to 20 nM.

Take `CC(C)CC(CP(=O)(O)Cc1ccc(Cc2ccccc2)cc1)C(=O)NC(CO)C(C)(C)C` (centres undefined): the IC50 at Interstitial collagenase stood at 18000 nM.

Regarding `CNC(=O)[C@H](NC(=O)C(CCc1ccccc1)CP(=O)(O)Cc1ccccc1)C(C)(C)C` (some centres undefined), the IC50 is 22000 nM at Interstitial collagenase, 300 nM on Collagenase 3 and 2700 nM at Stromelysin-1.

As to `CNC(=O)[C@H](NC(=O)C(CC1CCCCC1)CP(=O)(O)Cc1ccc(Cc2ccccc2)cc1)C(C)(C)C` (some centres undefined), the figures for the IC50 on Interstitial collagenase and at Collagenase 3 were 1800 nM and 1600 nM, respectively.

For the molecule `CNC(=O)[C@@H](C)NC(=O)C(CC(C)C)CP(=O)(O)Cc1ccc(Cc2ccccc2)cc1` (some centres undefined), at Interstitial collagenase, the IC50 worked out at 2300 nM.

With `CNC(=O)[C@H](NC(=O)C(CC(C)C)CP(=O)(O)Cc1ccc(Cc2ccccc2)cc1)C(C)(C)C` (some centres undefined), the values for the IC50 at Interstitial collagenase and on Collagenase 3 were 60 nM and 180 nM, respectively.

Turning to `CNC(=O)[C@H](NC(=O)C(CC(C)C)CP(=O)(O)Cc1ccc(C(=O)c2ccccc2)cc1)C(C)(C)C` (some centres undefined), on Interstitial collagenase, the IC50 was 750 nM.

Regarding `CC(=O)N1CCC[C@H]1C(=O)NCCCCP(=O)(O)C[C@@H](CCc1ccccc1)C(=O)N[C@H](CC(C)C)C(=O)Nc1ccccc1`, the Selectivity in data set [2] was 10. Moreover, the Ki in data set [1] came out at 6.1 nM; on Stromelysin-1, 62 nM.

In the case of `CNC(=O)[C@H](NC(=O)C(CCCCOc1ccccc1)CP(=O)(O)Cc1ccc(Cc2ccccc2)cc1)C(C)(C)C` (some centres undefined), the half-maximal inhibitory concentration (IC50) on Interstitial collagenase is above 30000 nM; at Collagenase 3, 30 nM.

With `CNC(=O)[C@H](NC(=O)C(CC1CC1)CP(=O)(O)Cc1ccc(Cc2ccccc2)cc1)C(C)(C)C` (some centres undefined), the IC50 on Interstitial collagenase came to 200 nM; on Collagenase 3, 1100 nM.

On to `CNC(=O)[C@H](NC(=O)C(CCC1CCCCC1)CP(=O)(O)Cc1ccc(Cc2ccccc2)cc1)C(C)(C)C` (some centres undefined), for which the IC50 at Interstitial collagenase stood at 19000 nM; at Collagenase 3, 2000 nM.

In the case of `CNC(=O)[C@H](NC(=O)C(CCC(F)(F)F)CP(=O)(O)Cc1ccc(Cc2ccccc2)cc1)C(C)(C)C` (some centres undefined), the IC50 was 45 nM at Interstitial collagenase and 1600 nM at Collagenase 3.

With `CNC(=O)[C@H](NC(=O)C(CC1CCC1)CP(=O)(O)Cc1ccc(Cc2ccccc2)cc1)C(C)(C)C` (some centres undefined), the IC50 on Interstitial collagenase was determined as 180 nM; on Collagenase 3, 110 nM.

Turning to `CNC(=O)[C@H](NC(=O)C(CCc1ccccc1)CP(=O)(O)Cc1ccc(Cc2ccccc2)cc1)C(C)(C)C` (some centres undefined), the IC50 at Interstitial collagenase came out at 690 nM; on Collagenase 3, 14 nM; at Stromelysin-1, 1200 nM. Also, the clearance in data set [3] amounted to 12 mL/min/kg. Moreover, the Vd in data set [4] was found to be 0.2 L/kg. Further, the half-life in data set [5] is 2.3 h.
